Results from US7129271B2, “Compounds for pest control and methods for their use” (The United States of America as represented by the …, priority 2000, dated 2006).
Values after ≈ are worked out from the molar mass of the structure shown. Read-outs that look alike come from different tables or passages of the source.

Key:
I. scapularis nymphs = assay: Tick bioassay, modified disposable pipette method, treated vials (Example 9); format: in vivo, Ixodes scapularis
Protocol: Tick Colonies. […] There was no known pesticide used at this location. Ticks were maintained at 21° C., 90% RH, and received a 16:8 h (light:dark) cycle as described in […]. Med. […] Tick and Flea Bioassays. […] A control treated with acetone only was run with each series. Tick and flea susceptibility was evaluated using a modified disposable pipette method. See, Barnard, D. R., et al., J. Econ. […] Three to 4 holes were made in the plastic cap to allow for air exchange. Nymphal ticks and adult fleas were then placed directly into the vials using forceps. Vials containing ticks or fleas were placed in desiccators for 24 h at 21° C. and 90% RH. […] For each time point, if ticks were incapable of movement, maintaining normal posture, leg coordination, ability to right themselves, or any signs of life, they were considered moribund or dead.

X. cheopis adults = assay: Flea bioassay, treated vials (Example 9); format: in vivo
Protocol: Flea Colonies. Adult X. cheopis fleas (1–3 wk old) were obtained from a colony founded more than eight years ago using adults received from Tom Schwan, Rocky Mountain Laboratories, Hamilton, Mont. The area from which these original adult fleas were obtained, and the resulting colony, have no known histories of pesticide exposure.
(§1) Tick and Flea Bioassays. Concentrations of the compounds were prepared by 2-fold serial dilutions of a 0.5% (wt:vol) solution of the extracts in acetone. […] A control treated with acetone only was run with each series. Tick and flea susceptibility was evaluated using a modified disposable pipette method. See, Barnard, D. R., et al., J. Econ. Entomol.
(§2) The inner surface of 2-dram friction cap vials were treated with the compound/acetone solution, or acetone only as a control, and left to air-dry overnight. Three to 4 holes were made in the plastic cap to allow for air exchange. Nymphal ticks and adult fleas were then placed directly into the vials using forceps. Vials containing ticks or fleas were placed in desiccators for 24 h at 21° C. and 90% RH. Morbidity and mortality was recorded at 1, 2, 4, 8, and 24 h after initial exposure.

Ae. aegypti adults = assay: Mosquito bottle bioassay (Example 9); format: in vivo
Protocol: Mosquito Colonies. Aedes aegypti adult mosquitoes were obtained from an existing colony at the Centers for Disease Control and Prevention (CDC), Division of Vector-Borne Infectious Diseases (DVBID), Fort Collins, Colo. This colony has been maintained for over fifteen years with no known history of exposure to pesticides. Mosquitoes were reared at 28° C., 85% RH, and a 14:10 h (light:dark) cycle. Larvae were grown in de-ionized water and fed ground liver powder solution ad libitum. Fourth instars were removed and placed in emergence cages, and adults were fed a 2% sucrose solution until assayed. Adults were exposed to test products at 4–7 d after emergence.
(§3) Mosquit Bioassay. Adult mosquitoes were tested using the bottle bioassay method of Brogden, W. G., and McAllister, J. C., J. Am. Mosq. Control Assoc. 14:159–64 (1998), with minor modifications. Natural product extracts were two-fold serially diluted for a total of 8 concentrations ranging from 0.002% to 0.25% in 1.5 ml of acetone. Individual dilutions were added to 250 ml Wheaton glass bottles and capped. Bottles were manipulated to evenly coat all inner surfaces. The caps were removed and bottles were allowed to air-dry overnight. Once bottles were completely dry, 10–50 adult mosquitoes were aspirated into the bottles. Mosquitoes were held in the bottles for 24 h at 23° C. and 85% RH. Morbidity and mortality were recorded at 15, 30, 45, and 60 min and 24 hour intervals. One bottle for each replicate was treated with acetone only and served as a control. The dose-mortality data was evaluated with probit analysis, using the LdP Line software, to determine LC50 and LC90 values.

[1] = test system: nymphal Ixodes scapularis; assay: Treated-vial biocidal screening, 2% acetone solutions (Example 2); format: in vivo
Protocol: (§4) Samples of the compounds listed below Were obtained from Dr. Karchesy, a co-inventor, and screened for biocidal activities against nymphal Ixodes scapularis. In this example, 2% acetone solutions (wt./vol.) of the compounds were applied to inner surfaces of 2-dram friction cap vials. Vials and caps were treated then allowed to dry for a minimum of 4 hours before placing 10 nymphs in each container. These same vials were used to challenge additional nymphs and adult I. scapularis ticks and adult Xenopsylla cheopis fleas through five weeks to observe any possible residual activity.
(§5) Numbers in parentheses refer to length of treatment in terms of hours (h) or weeks (wk). Data is presented in terms of number killed/number tested. For test periods longer than 24 hours, the treated vials were allowed to sit for the stated period after drying (72 h, 4 wk, or 5 wk) and each group of arthropods was added to the vials for the final 24 h of the test period.

[2] = test system: adult I. scapularis ticks; assay: Treated-vial biocidal screening, residual challenge (Example 2); format: in vivo, Ixodes scapularis; conditions: treated vials sat 4 wk; arthropods added for final 24 h
Protocol: as §4, §5

[3] = test system: adult Xenopsylla cheopis fleas; assay: as above; format: in vivo; conditions: treated vials sat 5 wk; arthropods added for final 24 h
Protocol: as §4, §5

Ixodes scapularis nymphs = assay: Residual activity, treated vials aged before loading (Example 9); format: in vivo
Protocol: as §1, with “acetone. The approximate toxicity of individual compounds was determined with a total of 8 doses ranging from 0.002% to 0.25%.” for “acetone.”, “Entomol. 74:466–69 (1981).” for “Entomol.”
as §2, with “Groups of 10 nymphal I. scapularis and X. cheopis fleas were used in all tests, resulting in a total of 5,240 nymphs and 4,860 fleas exposed to the compounds. The” for “The”

[4] = test system: Xenopsylla cheopis adults; assay: as above; format: in vivo
Protocol: as §1, with “acetone. The approximate toxicity of individual compounds was determined with a total of 8 doses ranging from 0.002% to 0.25%.” for “acetone.”, “Entomol. 74:466–69 (1981).” for “Entomol.”
as §2, with “Groups of 10 nymphal I. scapularis and X. cheopis fleas were used in all tests, resulting in a total of 5,240 nymphs and 4,860 fleas exposed to the compounds. The” for “The”

Aedes aegypti adults = assay: Residual activity, treated bottles aged before loading (Example 9); format: in vivo
Protocol: as §3

[5] = test system: ticks, fleas, and mosquitoes; assay: Residual activity, overall statements for ticks, fleas and mosquitoes (Example 9); conditions: 1 to 4 weeks after treatment
[6] = 24 h exposure, 95% CI in parentheses
[7] = residual activity at 1 week after treatment
[8] = residual activity at 2 weeks after treatment
[9] = residual activity at 4 weeks after treatment

For `Cc1ccc(C(C)C)cc1O` [Compound 4, Carvacrol], the LC50 (I. scapularis nymphs; Ixodes scapularis, 24 h) was 68 µg/mL (≈ 453 µM), the LC90 (I. scapularis nymphs; Ixodes scapularis, 24 h, read-out: LC90) was 140 µg/mL (≈ 932 µM) and the LC50 (X. cheopis adults; Xenopsylla cheopis, 24 h) was 59 µg/mL (≈ 393 µM). It also gave an LC90 (X. cheopis adults; Xenopsylla cheopis, 24 h, read-out: LC90) of 140 µg/mL (≈ 932 µM), an LC50 (Ae. aegypti adults; Aedes aegypti, 24 h) of 51 µg/mL (≈ 339 µM) and an EC90 (Ae. aegypti adults; Aedes aegypti, 24 h, read-out: LC90) of 140 µg/mL (≈ 932 µM).

With `C=C(C)[C@@H]1CCC2=CCC[C@@H](C)[C@]2(C)C1` [Compound 5, Valencene] the “I. scapularis nymphs (24 h), number killed/number tested” value ([1]; 2% acetone solution (wt./vol.) dried in vials, 24 h) was 10/10, the “I. scapularis nymphs (72 h), number killed/number tested” value ([1]; treated vials sat 72 h, arthropods added for final 24 h) was 0/5 and the “I. scapularis adults (4 wk), number killed/number tested” value [2] was 0/5. The “X. cheopis adults (5 wk), number killed/number tested” value [3] was 0/5, the LC50 (I. scapularis nymphs; [6]) was 0.598 percent concentration, wt:vol and the LC90 (I. scapularis nymphs; [6]) was 44.837 percent concentration, wt:vol. The LC50 (X. cheopis adults; [6]) was 0.041 (0.034–0.049) percent concentration, wt:vol, the LC90 (X. cheopis adults; [6]) was 0.063 (0.052–0.093) percent concentration, wt:vol and the LC50 (Ae. aegypti adults; [6]) was 0.015 (0.008–0.029) percent concentration, wt:vol. For the same compound, the LC90 (Ae. aegypti adults; [6]) was 0.037 (0.031–0.162) percent concentration, wt:vol.

For `C=C(C)[C@@H]1CCC2=CC(=O)C[C@@H](C)[C@]2(C)C1` [Compound 8, Nootkatone], the LC50 (I. scapularis nymphs; [6]) was 0.0061 (0.005–0.0072) percent concentration, wt:vol, the LC50 (X. cheopis adults; [6]) was 0.0029 (0.002–0.0038) percent concentration, wt:vol and the LC50 (X. cheopis adults; 24 h exposure, 95% CI in parentheses, listed as compound 8) was 0.0029 percent concentration, wt:vol. The LC50 (Ixodes scapularis nymphs; [7]) was 0.025 percent concentration, wt:vol, the LC90 (Ixodes scapularis nymphs; [7]) was 0.071 percent concentration, wt:vol and the LC50 (Ixodes scapularis nymphs; [8]) was 0.019 (0.014–0.024) percent concentration, wt:vol. For the same compound, the LC90 (Ixodes scapularis nymphs; [8]) was 0.056 (0.04–0.094) percent concentration, wt:vol, the LC50 (Ixodes scapularis nymphs; [9]) was 0.25 percent concentration, wt:vol and the LC90 (Ixodes scapularis nymphs; [9]) was 0.71 percent concentration, wt:vol. The LC50 [4, 7] was 0.02 (0.016–0.026) percent concentration, wt:vol, the LC90 [4, 7] was 0.053 (0.04–0.082) percent concentration, wt:vol and the LC50 [4, 8] was 0.018 (0.013–0.024) percent concentration, wt:vol. The LC90 [4, 8] was 0.081 (0.054–0.156) percent concentration, wt:vol, the LC50 [4, 9] was 0.035 (0.026–0.051) percent concentration, wt:vol and the LC90 [4, 9] was 0.161 (0.098–0.387) percent concentration, wt:vol. The LC50 (Aedes aegypti adults; [7]) was 0.0065 percent concentration, wt:vol, the LC90 (Aedes aegypti adults; [7]) was 0.014 percent concentration, wt:vol and the LC50 (Aedes aegypti adults; [8]) was 0.0067 (0.0058– percent concentration, wt:vol. For the same compound, the LC90 (Aedes aegypti adults; [8]) was 0.012 (0.01–0.015) percent concentration, wt:vol, the LC50 (Aedes aegypti adults; [9]) was 0.02 percent concentration, wt:vol and the LC90 (Aedes aegypti adults; [9]) was 0.29 percent concentration, wt:vol. The “residual activity (in words)” value [5] was “considerable biological activity”.
